Test results published in PMC8491194, “A cyclic peptide retards the proliferation of DU145 prostate cancer cells in vitro and in vivo through inhibition of FGFR2” (MedComm, 2020).
Where a SMILES comes first, the peptide text is derived from it. Bridges are numbered along the chain shown (N, C = ends). Where no end group is shown, it is not given here. [ ]: non-standard residue; d: D form.

How the values were obtained:
[1] = system: phosphorylated FGFR2, AKT, and ERK1/2; assay: Western blot of phosphorylated FGFR2, AKT and ERK1/2 in xenograft tumors; type: in vivo, BALB/C‐nu/nu mice; details: tumor tissue of xenograft mice
Experimental: DU145 cells with a density above 90% were harvested in to a microtube. The cell concentration was adjusted to 1 × 10^7 cells/mL, and two million cells were injected under the right arm of each individual. […] Animal models were randomly selected and assigned to each experimental group, and compounds were administered by intratumoral injections. The dosing regimen was one injection a day for 7 days. The length and width of the tumor were measured using a Vernier caliper once a day, and the animal's weight was recorded once a day from the beginning of the experiment. On Day 14, blood samples of each animal were collected, the tumor tissue was separated and weighed, and internal organs were collected. The tumor volume was calculated according to the formula V = ab ^2/2 (a refers to the length of the tumor, and b refers to the width).
Cell lysates were subjected to SDS‐PAGE for Western blotting. Briefly, cells were lysed with RIPA buffer (Thermo, Waltham, MA), followed by heat denaturation in 1X Laemmli SDS buffer (Sigma, St Louis, MO). For SDS‐PAGE 100 μg proteins were loaded to each lane. After electrophoresis, the proteins were transferred onto PVDF membranes, followed by blocking in 5% nonfat milk. […] The bands were quantified using Image Lab Software 6.0 (Bio‐Rad, Hercules, CA).

[2] = Body weight of tumor-bearing mice; type: in vivo, BALB/C‐nu/nu mice; details: various dosing regimens; data not shown
Experimental: (§1) DU145 cells with a density above 90% were harvested in to a microtube. The cell concentration was adjusted to 1 × 10^7 cells/mL, and two million cells were injected under the right arm of each individual. After injection, the tumors grew to a size of approximately 200 mm^3 in the following days. […] Animal models were randomly selected and assigned to each experimental group, and compounds were administered by intratumoral injections. The dosing regimen was one injection a day for 7 days. The length and width of the tumor were measured using a Vernier caliper once a day, and the animal's weight was recorded once a day from the beginning of the experiment. On Day 14, blood samples of each animal were collected, the tumor tissue was separated and weighed, and internal organs were collected. The tumor volume was calculated according to the formula V = ab ^2/2 (a refers to the length of the tumor, and b refers to the width).

[3] = system: DU145 xenograft; assay: DU145 xenograft in nude mice, tumor growth; type: in vivo, BALB/C‐nu/nu mice; details: intratumoral injection once a day for 7 days, evaluated to Day 14, P5 10-25 mg/kg, DcP5 10, 25, 50 mg/kg, P5-3 50 mg/kg
Experimental: The specific pathogen‐free (SPF) level experimental male nude mice were purchased from the Animal Center of Guangdong Province (China), and the strain was BALB/C‐nu/nu. The animal experiments were conducted by the Animal Experimental Center of Jinan University (China) according to the National Institutes of Health guide for the care and use of Laboratory animals. The treatment and experimental procedure met the requirements of animal ethics.
as §1

[4] = system: heart, liver, spleen, lung, and kidney; assay: H&E staining of major organs of tumor-bearing mice; type: in vivo, BALB/C‐nu/nu mice; details: tumor-bearing mice at functional doses, paraffin sections
Experimental: as §1
Briefly, the connective tissue around the parenchyma organ was removed and washed three times in PBS, and the tissues were fixed with 10% formalin solution for 24 hours, followed by gradient ethanol dehydration. The tissues were then subjected to paraffin embedding. Sections of 4 μm thickness were prepared for H&E staining. H&E staining was performed according to the standard protocol of the H&E staining kit (Solarbio, China).

[5] = system: DU145 cells; assay: Colony formation of DU145 cells; type: cell-based, human; details: 12.5 μM
Experimental: Cell colony formation was also employed to evaluate the effect of P5 and DcP5. The DU145 cells were seeded in six‐well plates (500 cells/well). The cultural supernatant was removed at 48 hours posttreatment, followed by washing with PBS three times. The cells were then fixed with 4% paraformaldehyde and air dried. Crystal violet staining was performed using solution (Sangon, China) as per the instructions. Then, photographs were taken, and spot amounts were calculated with an Invitrogen Countess II FL (Thermo, Waltham, MA) cell counter.
(§2) In our study, peptide cyclization was achieved by adding two cysteine residues to each end of the peptides. Cysteine is a chiral molecule. The natural cysteine is L‐cysteine, and a report has shown that introduction of unnatural D‐cysteine can theoretically improve the stability of the cyclic peptide in vivo.[41], [42], [43] Therefore, we designed and synthesized two cyclic peptides, DcP5 and LcP5, with two L‐cysteines or D‐cysteines at each end, respectively. The amino acid polymers of DcP5 and LcP5 were synthesized via the same organic chemistry as the P5 peptide. The cysteine‐ending peptides were spontaneously cyclized at 37°C in PBS (pH = 9.0) for 12 hours. […] Then, the binding affinity of these two cyclic peptides to FGFR2 was measured by ITC as described in Section 2.1. […]

[6] = system: FGFR2 on DU145 cells; assay: Immunofluorescence assay (IFA) of biotin-labeled peptide binding to DU145 cells; type: cell-based, human
Experimental: The binding affinity was analyzed under fluorescent microscope. GFP‐labeled DU145 cells were cultured to a density of 50%, followed by 4% paraformaldehyde fixation. After treated with 0.2% Triton X‐100, the cells were then blocked with 5% BSA. The incubation was performed by different treatments and SA‐PE‐TRITC was used as a fluorescent indicator; briefly, the FGFR2 mAb group (Abcam [Cambridge, MA] followed by PE‐TRITC‐labeled goat antimouse IgG for color development), and the blank group (equal amounts of PBS followed by SA‐PE‐TRITC as a fluorescent indicator were added). After adding the biotin‐labeled P5 peptide, biotin‐labeled P5‐3 peptide or anti‐FGFR2 mAb, the cells were incubated at 4°C overnight. After washing five times with PBST, the TRITC‐labeled streptavidin regent or TRITC‐labeled secondary antibody was introduced for another incubation at 25°C for 30 minutes in dark. Finally, the DAPI staining reagent was employed to stain the nucleus for 10 minutes in dark, followed by washing five times with PBS. After the addition of ProLong Antifade mounting medium (Thermo, Waltham, MA), a confocal microscope (OLS4100, Japan) was used for observation.

[7] = system: DU145 cells; assay: CCK-8 cell proliferation, DU145 cells; type: cell-based, human; details: DU145, concentrations of 6.25 and 12.5 μM
Experimental: (§3) The cell lines, including DU145 (human prostate cancer cells, American Type Culture Collection/ATCC, Manassas, VA), LNCaP (human prostate cancer cells, ATCC, Manassas, VA), KYSE30 (human esophageal squamous cell carcinoma cells, ATCC, Manassas, VA), KYSE510 (human esophageal squamous cell carcinoma cells, ATCC, US), L02 (human normal liver cells, ATCC, Manassas, VA), and MCF‐7 (human breast cancer cells, ATCC, Manassas, VA) were cultured in DMEM medium (Thermo Gibco, Waltham, MA) with 10% FBS (Biological Industries, Israel). The SGC7901 (human gastric cancer cells, ATCC, Manassas, VA) cells were maintained in RPMI‐1640 medium (Thermo Gibco, Waltham, MA) with 10% FBS. All these cell lines were cultured at 37°C in a 5% CO2 cell incubator (Bio‐Rad, Hercules, CA). Subculture of these cell lines was employed with 0.25% trypsin (Thermo Gibco, Waltham, MA).
The cells were seeded at a density of 30 000 cells/mL based on cell counting performed with a cell counting plate. […]
(§4) Cell proliferation was evaluated using the Enhanced CCK‐8 cell proliferation and toxicity test kit (Meilunbio, China) according to the product specifications. Finally, the OD450 nm and OD630 nm were measured with an iMark dual wavelength microplate reader (Bio‐Rad, Hercules, CA), and the ratio of OD450 nm/OD630 nm was calculated.

[8] = system: FGFR2 knockdown DU145 cells; assay: Growth inhibition in FGFR2-knockdown (shFGFR2) DU145 cells; type: cell-based, human; details: DU145, shFGFR2 knockdown vs wild type
Experimental: The cells were seeded at a density of 30 000 cells/mL based on cell counting performed with a cell counting plate. Different concentrations of the P5 peptide were added to the cultural medium, followed by a 24‐hour incubation at 37°C in a 5% CO2 cell incubator (Bio‐Rad, Hercules, CA). Five replicates were set up for each experimental group.
as §4
The shFGFR2 plasmid was purchased from Sigma (St Louis, MO) (TRCN0000218493). One microliter Lip3000 (Lipofectamine 3000, Invitrogen, Carlsbad, CA) was mixed with 100 ng plasmid in nonserum DMEM medium before being added into the cultural DU145 cells. The cells were incubated with the Lip3000/plasmid solution for 6 hours, followed by DMEM with 10% FBS incubation. The transfected cells were then ready for growth‐inhibition experiment and RNA extraction for qPCR.

[9] = Peptide concentration in peripheral blood after administration; type: in vivo, BALB/C‐nu/nu mice; details: 25 mg/kg, serum; for time before blood concentration dropped below half C max: mice, biotin quantitation kit, sampled 0.5-24 hours postadministration
Experimental: as §1, with “On Day 14, blood samples of each animal were collected, the tumor tissue was separated and weighed, and internal organs were collected.” left out
Serum in the blood was separated and used to perform biotin quantitation with a Biotin Quantitation assay kit (MyBioSource, San Diego, CA) to calculate the concentration of the biotin‐peptide complex in the blood sample. Serum samples from the blank group were used as background controls, and serum of the 25 mg/kg‐dose P5 group and 25 mg/kg‐dose DcP5 group was examined in this step.

[10] = target: FGFR2 (Homo sapiens, UniProt P21802); assay: Isothermal titration calorimetry (ITC) binding to FGFR2 protein; details: in Figure 4A, read-out: KD, P5-FGFR2
Experimental: A set of peptide candidates was designed with manual inspection, synthesized with a chemical dehydration reaction, and verified with MS. To screen the candidates, an in vitro binding assay using isothermal titration calorimetry (ITC) was performed against the FGFR2 protein using AutoiTC200 (MicroCal, MA). After the positive candidate was confirmed by ITC, three analog peptides with different mutant amino acids were designed to verify the active site previously determined. The binding affinity of each mutant analog to FGFR2 was measured using ITC and compared with the positive candidate.
as §2

[11] = system: L02 normal liver cells; assay: Toxicity toward L02 normal liver cells; type: cell-based, human; details: in vitro
Experimental: as §3, §4

Sequence of FGFR2 (P21802 22-821): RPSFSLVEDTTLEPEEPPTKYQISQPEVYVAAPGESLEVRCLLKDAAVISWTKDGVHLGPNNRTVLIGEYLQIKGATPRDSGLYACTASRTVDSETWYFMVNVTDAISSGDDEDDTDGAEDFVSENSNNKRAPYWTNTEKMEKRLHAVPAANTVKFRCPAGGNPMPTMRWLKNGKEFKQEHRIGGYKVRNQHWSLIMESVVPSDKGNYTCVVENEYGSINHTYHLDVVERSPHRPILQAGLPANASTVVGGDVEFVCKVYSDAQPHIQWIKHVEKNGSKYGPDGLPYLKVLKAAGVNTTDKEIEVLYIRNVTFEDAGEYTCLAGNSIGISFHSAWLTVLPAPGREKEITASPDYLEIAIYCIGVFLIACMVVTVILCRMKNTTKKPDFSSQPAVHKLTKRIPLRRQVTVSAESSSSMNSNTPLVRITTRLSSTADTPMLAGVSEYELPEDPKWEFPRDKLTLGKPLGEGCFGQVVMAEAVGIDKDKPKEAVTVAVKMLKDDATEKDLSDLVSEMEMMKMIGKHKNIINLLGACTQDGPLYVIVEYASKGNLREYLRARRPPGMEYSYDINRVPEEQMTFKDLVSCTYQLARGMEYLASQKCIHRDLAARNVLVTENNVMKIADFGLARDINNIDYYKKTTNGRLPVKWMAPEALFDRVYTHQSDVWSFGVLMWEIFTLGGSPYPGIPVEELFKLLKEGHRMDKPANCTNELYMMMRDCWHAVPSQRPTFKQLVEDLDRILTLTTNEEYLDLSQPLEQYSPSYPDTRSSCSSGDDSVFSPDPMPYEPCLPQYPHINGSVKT

| Compound | phosphorylation of FGFR2, AKT, and ERK1/2 [1] | body weight versus other groups incl. blank [2] | tumor growth in xenograft [3] | toxicity toward heart, liver, spleen, lung, and kidney (H&E morphology) [4] | colony number versus control group ([5]; 500 cells/well, crystal violet) | less colonies than cells exposed to P5 ([5]; P < .05) [%] | fluorescent intensity of treated cells relative to P5 ([6]; IFA) | binding to FGFR2 on cells (IFA) ([6]; biotin-labeled peptide) | growth-inhibition rate relative to P5 [7] | growth inhibitory effect in FGFR2 knockdown cells compared to wild type cells [8] | time before blood concentration dropped below half C max [9] [h] | concentration in peripheral blood relative to P5 ([9]; 0.5 hour after administration, biotin quantitation kit (biotin-peptide)) | Kd [10] [nM] | toxicity toward normal cells [11] |
| --- | --- | --- | --- | --- | --- | --- | --- | --- | --- | --- | --- | --- | --- | --- |
| CC(C)C[C@@H]1NC(=O)[C@H](N)CSSC[C@H](C(=O)O)NC(=O)[C@H](CCCNC(=N)N)NC(=O)[C@H](CCC(=O)O)NC(=O)[C@H](CCC(=O)O)NC(=O)[C@H](C)NC(=O)[C@H](CCC(N)=O)NC(=O)[C@H](CC(C)C)NC(=O)[C@H](CCC(N)=O)NC1=O [DcP5] (H-[dC]LQLQAEER[dC]-OH; disulfide 1-10; N-terminus and C-terminus assumed) | reduced | little difference in body weight | significantly decreased the tumor size in dose‐dependent manner | remained normal | significantly less than the control group | 20 | significantly stronger | bind to FGFR2 | stronger inhibition than P5 | significantly decreased | 7 | twice |  |  |
| LQLQAEER [P5] |  | little difference in body weight |  | negligible toxicity |  |  |  |  |  |  | 5 |  | 490 | negligible toxicity |
